The source of these data is US20250271426A1, “REDUCTION OF BITTER TASTE OF ACTIVE PHARMACEUTICAL INGREDIENTS AND RELATED ASSAYS AND SCREENING METHODS” (Firmenich Incorporated, priority 2022, published 2025).

Common to all, as to experiment: FLIPR calcium assay, cells with promiscuous G protein transfected with bitter receptor cDNA
What all share (format): cell-based
What all share (details): responsive if cellular response of >10% over baseline, Fluo4-AM

Assay [1] deals with T1, T2R receptor SEQ ID NO: 5 (S5) (Homo sapiens, UniProt P59534).
T1 construct: expressed in transfected cells; host or cells: cells expressing a promiscuous G protein (e.g., G16g44)
T1 sequence (P59534 18-338): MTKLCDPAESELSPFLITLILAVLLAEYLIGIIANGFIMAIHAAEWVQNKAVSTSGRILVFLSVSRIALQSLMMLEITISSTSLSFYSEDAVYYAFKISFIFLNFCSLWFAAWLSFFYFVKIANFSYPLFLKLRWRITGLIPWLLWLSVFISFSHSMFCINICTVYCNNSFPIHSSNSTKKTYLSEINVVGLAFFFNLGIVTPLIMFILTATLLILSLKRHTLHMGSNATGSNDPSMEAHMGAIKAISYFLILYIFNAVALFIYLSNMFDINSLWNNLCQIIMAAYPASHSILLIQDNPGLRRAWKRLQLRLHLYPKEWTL
How it is done:
(§1) Cells expressing a promiscuous G protein (e.g., G16g44) were transfected with vectors encoding 22 functional bitter receptor cDNAs, with one receptor per transfection. The cells were transfected directly in 384-well format high-density plates and incubated for 28 hours. Later, cells were loaded with the Ca-specific dye Fluo4-AM. After an incubation of 60 minutes, excess dye is washed off, and cells are stimulated with respective bitter agonists while simultaneously recording changes in intracellular fluorescence using a FLIPR instrument.
(§2) The above protocol was carried out using 94 different active pharmaceutical ingredients (APIs) that span a wide range of different APIs having a diversity of chemical structures. A particular T2R receptor was identified as being responsive to a particular API if it triggered a cellular response of >10% over baseline.

The target in assay [2] is T2, T2R receptor SEQ ID NO: 6 (S6) (Homo sapiens, UniProt P59540).
T2 construct: expressed in transfected cells; host or cells: cells expressing a promiscuous G protein (e.g., G16g44)
T2 sequence (P59540 1-309): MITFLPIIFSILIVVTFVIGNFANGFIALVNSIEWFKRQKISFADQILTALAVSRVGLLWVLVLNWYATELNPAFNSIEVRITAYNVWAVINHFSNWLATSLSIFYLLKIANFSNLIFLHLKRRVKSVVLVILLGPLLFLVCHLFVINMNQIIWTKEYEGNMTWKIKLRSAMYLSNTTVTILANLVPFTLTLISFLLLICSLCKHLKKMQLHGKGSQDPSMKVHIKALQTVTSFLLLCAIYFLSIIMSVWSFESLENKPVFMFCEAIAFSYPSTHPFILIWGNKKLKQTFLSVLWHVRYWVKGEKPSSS
How it is done: as §1, §2

In assay [3] the target is T3, T2R receptor SEQ ID NO: 1 (S1) (Homo sapiens, UniProt Q9NYW7).
T3 construct: expressed in transfected cells; host or cells: cells expressing a promiscuous G protein (e.g., G16g44)
T3 sequence (Q9NYW7 1-299): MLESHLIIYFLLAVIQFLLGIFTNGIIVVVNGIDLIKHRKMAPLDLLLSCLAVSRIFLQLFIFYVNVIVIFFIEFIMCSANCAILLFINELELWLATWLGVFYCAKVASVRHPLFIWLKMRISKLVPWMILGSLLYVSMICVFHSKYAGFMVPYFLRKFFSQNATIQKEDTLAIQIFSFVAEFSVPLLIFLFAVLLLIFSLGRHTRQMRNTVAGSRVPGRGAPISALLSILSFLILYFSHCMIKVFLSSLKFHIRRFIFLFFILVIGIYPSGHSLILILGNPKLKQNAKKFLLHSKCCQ
How it is done:
as §1, §2

For assay [4], the target named is T4, T2R receptor SEQ ID NO: 4 (S4) (Homo sapiens, UniProt Q9NYV8).
T4 construct: expressed in transfected cells; host or cells: cells expressing a promiscuous G protein (e.g., G16g44)
T4 sequence (Q9NYV8 1-317): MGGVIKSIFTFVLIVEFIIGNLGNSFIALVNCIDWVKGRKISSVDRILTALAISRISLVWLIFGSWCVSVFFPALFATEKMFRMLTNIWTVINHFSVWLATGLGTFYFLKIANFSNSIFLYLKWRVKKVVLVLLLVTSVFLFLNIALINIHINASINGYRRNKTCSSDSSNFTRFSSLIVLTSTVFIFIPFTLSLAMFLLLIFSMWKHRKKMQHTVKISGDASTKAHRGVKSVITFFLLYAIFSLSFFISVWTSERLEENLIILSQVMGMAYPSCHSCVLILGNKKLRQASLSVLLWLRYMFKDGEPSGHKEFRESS
As to the method:
as §1, §2

Assay [5] addresses T5, T2R receptor SEQ ID NO: 3 (S3) (Homo sapiens, UniProt Q9NYW0, T156M).
T5 construct: expressed in transfected cells; host or cells: cells expressing a promiscuous G protein (e.g., G16g44)
T5 sequence (Q9NYW0 1-307 T156M): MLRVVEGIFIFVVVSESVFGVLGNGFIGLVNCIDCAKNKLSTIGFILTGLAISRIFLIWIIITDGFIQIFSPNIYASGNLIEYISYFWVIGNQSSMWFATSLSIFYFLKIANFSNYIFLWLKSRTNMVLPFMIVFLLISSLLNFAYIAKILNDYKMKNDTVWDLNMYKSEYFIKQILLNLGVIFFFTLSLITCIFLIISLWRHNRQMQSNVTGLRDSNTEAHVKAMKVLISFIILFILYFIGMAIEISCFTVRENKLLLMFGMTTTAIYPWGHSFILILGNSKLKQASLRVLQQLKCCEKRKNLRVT
As to the method:
as §1, §2

Turning to `COc1cc2c(c(OC)c1OC)-c1ccc(OC)c(=O)cc1[C@@H](NC(C)=O)CC2` [Colchicine], the “S5 positive response of T2R receptor to API” value (from here on “S5 positive response”) in assay [1] is “+ (a “+” to indicate whether a particular T2R receptor showed a positive response to a particular API)”. The “S6 positive response of T2R receptor to API” value (shortened to “S6 positive response”) in assay [2] is reported as “+ (a “+” to indicate whether a particular T2R receptor showed a positive response to a particular API)”.
`Cc1cc(N)c2ccccc2[n+]1CCCCCCCCCC[n+]1c(C)cc(N)c2ccccc21` [Dequalinium]: the “S5 positive response” value in assay [1] is recorded as “+ (a “+” to indicate whether a particular T2R receptor showed a positive response to a particular API)”. Further, in assay [2], the “S6 positive response” value is on record as “+ (a “+” to indicate whether a particular T2R receptor showed a positive response to a particular API)”.
For `CC(C)(C(=O)O)c1ccc(C(O)CCCN2CCC(C(O)(c3ccccc3)c3ccccc3)CC2)cc1` (stereo not drawn) [Fexofenadine], the “S1 positive response of T2R receptor to API” value (“S1 positive response” below) in assay [3] was “+ (a “+” to indicate whether a particular T2R receptor showed a positive response to a particular API)”. For the same compound, the “S5 positive response” value in assay [1] was “+ (a “+” to indicate whether a particular T2R receptor showed a positive response to a particular API)”. Moreover, the “S6 positive response” value in assay [2] was “+ (a “+” to indicate whether a particular T2R receptor showed a positive response to a particular API)”.
Regarding `CC12CCC(CC1)C(C)(C)O2` [Eucalyptol], the “S1 positive response” value in assay [3] is “+ (a “+” to indicate whether a particular T2R receptor showed a positive response to a particular API)”. In addition, the “S4 positive response of T2R receptor to API” value (from here on “S4 positive response”) in assay [4] is “+ (a “+” to indicate whether a particular T2R receptor showed a positive response to a particular API)”.
For `COC(=O)[C@@H]1[C@H]2C[C@H]3c4[nH]c5ccccc5c4CCN3C[C@@H]2CC[C@@H]1O` [Yohimbine], the “S1 positive response” value in assay [3] is given as “+ (a “+” to indicate whether a particular T2R receptor showed a positive response to a particular API)”. Moreover, the “S3 positive response of T2R receptor to API” value (shortened to “S3 positive response”) in assay [5] was “+ (a “+” to indicate whether a particular T2R receptor showed a positive response to a particular API)”. Besides, in assay [2], the “S6 positive response” value is “+ (a “+” to indicate whether a particular T2R receptor showed a positive response to a particular API)”.
As to `CC(CCc1ccccc1)NCC(O)c1ccc(O)c(C(N)=O)c1` (stereo not drawn) [Labetalol], in assay [5], the “S3 positive response” value is listed as “+ (a “+” to indicate whether a particular T2R receptor showed a positive response to a particular API)”. For the same compound, the “S5 positive response” value in assay [1] is on record as “+ (a “+” to indicate whether a particular T2R receptor showed a positive response to a particular API)”. For the same compound, the “S6 positive response” value in assay [2] is “+ (a “+” to indicate whether a particular T2R receptor showed a positive response to a particular API)”.
In the case of `C=CC[C@@H]1/C=C(\C)C[C@H](C)C[C@H](OC)[C@H]2O[C@@](O)(C(=O)C(=O)N3CCCC[C@H]3C(=O)O[C@H](/C(C)=C/[C@@H]3CC[C@@H](O)[C@H](OC)C3)[C@H](C)[C@@H](O)CC1=O)[C@H](C)C[C@@H]2OC` [Fujimycin], the “S1 positive response” value in assay [3] was “+ (a “+” to indicate whether a particular T2R receptor showed a positive response to a particular API)”.
With `CC1(C)S[C@@H]2[C@H](NC(=O)[C@H](N)c3ccc(O)cc3)C(=O)N2[C@H]1C(=O)O` [Amoxicillin], the “S1 positive response” value in assay [3] is on record as “+ (a “+” to indicate whether a particular T2R receptor showed a positive response to a particular API)”.
Take `CC(=O)Oc1ccc(C(c2ccc(OC(C)=O)cc2)c2ccccn2)cc1` [Bisacodyl]: the “S1 positive response” value in assay [3] is “+ (a “+” to indicate whether a particular T2R receptor showed a positive response to a particular API)”. Besides, in assay [4], the “S4 positive response” value is “+ (a “+” to indicate whether a particular T2R receptor showed a positive response to a particular API)”. In addition, the “S6 positive response” value in assay [2] is given as “+ (a “+” to indicate whether a particular T2R receptor showed a positive response to a particular API)”.
Take `C=C[C@H]1C[N@@]2CC[C@H]1C[C@H]2[C@H](O)c1ccnc2ccc(OC)cc12` [Quinine]: the “S3 positive response” value in assay [5] is “+ (a “+” to indicate whether a particular T2R receptor showed a positive response to a particular API)”. Besides, in assay [4], the “S4 positive response” value is “+ (a “+” to indicate whether a particular T2R receptor showed a positive response to a particular API)”. Moreover, the “S5 positive response” value in assay [1] was “+ (a “+” to indicate whether a particular T2R receptor showed a positive response to a particular API)”. Moreover, the “S6 positive response” value in assay [2] is recorded as “+ (a “+” to indicate whether a particular T2R receptor showed a positive response to a particular API)”.
Consider `CC(=O)Nc1ccc(O)cc1` [Acetaminophen], for which the “S5 positive response” value in assay [1] is “+ (a “+” to indicate whether a particular T2R receptor showed a positive response to a particular API)”.
As to `COCCCC/C(=N\OCCN)c1ccc(C(F)(F)F)cc1` [Fluvoxamine], the “S1 positive response” value in assay [3] is “+ (a “+” to indicate whether a particular T2R receptor showed a positive response to a particular API)”.
On to `CCN(CC)CC#CCOC(=O)C(O)(c1ccccc1)C1CCCCC1` (stereo not drawn) [Oxybutynin Chloride], for which the “S3 positive response” value in assay [5] is given as “+ (a “+” to indicate whether a particular T2R receptor showed a positive response to a particular API)”. Besides, the “S4 positive response” value in assay [4] is reported as “+ (a “+” to indicate whether a particular T2R receptor showed a positive response to a particular API)”. Further, in assay [1], the “S5 positive response” value is “+ (a “+” to indicate whether a particular T2R receptor showed a positive response to a particular API)”. In addition, the “S6 positive response” value in assay [2] is “+ (a “+” to indicate whether a particular T2R receptor showed a positive response to a particular API)”.
For `COC(=O)[C@H](c1ccccc1Cl)N1CCc2sccc2C1` [Clopidogrel], in assay [3], the “S1 positive response” value is recorded as “+ (a “+” to indicate whether a particular T2R receptor showed a positive response to a particular API)”. Further, the “S3 positive response” value in assay [5] is reported as “+ (a “+” to indicate whether a particular T2R receptor showed a positive response to a particular API)”.
`CCN(CC)CCNC(=O)c1ccc(N)cc1` [Procaineamide]: the “S3 positive response” value in assay [5] was “+ (a “+” to indicate whether a particular T2R receptor showed a positive response to a particular API)”. In assay [1], the “S5 positive response” value is reported as “+ (a “+” to indicate whether a particular T2R receptor showed a positive response to a particular API)”. In addition, the “S6 positive response” value in assay [2] is listed as “+ (a “+” to indicate whether a particular T2R receptor showed a positive response to a particular API)”.
In the case of `CCCCc1ncc(/C=C(\Cc2cccs2)C(=O)O)n1Cc1ccc(C(=O)O)cc1` [Eprosartan], the “S1 positive response” value in assay [3] is given as “+ (a “+” to indicate whether a particular T2R receptor showed a positive response to a particular API)”.
